Results reported in patent US11236095B2 (priority 2007, dated 2022).

Test: Human dose prediction (human PK parameter estimation)
Conditions: plasma, read-out: half-life, estimated (human) (converted)

half-life: ~6 h
Structure (SMILES): NC1(C(=O)N[C@@H](CCO)c2ccc(Cl)cc2)CCN(c2ncnc3[nH]ccc23)CC1 [Example 9, (S)-4-amino-N-(1-(4-chlorophenyl)-3-hydroxypropyl)-1-(7H-pyrrolo[2,3-d]pyrimidin-4-yl)piperidine-4-carboxamide]
